From patent US20130040882A1, “USE OF FIBROBLAST GROWTH FACTOR FRAGMENTS” (NOVARTIS AG, priority 2003, published 2013) come the findings set out here.

Values joined by “and” are separate entries in the source; they are usually repeats but may differ in a detail not shown here. Equal entries are not always repeated.

A short description of this series: Salmon calcitonin/PTS893 monkey study: in vivo examinations (mortality, food consumption, clinical observations, body weight). More on the design: species or system cynomolgus monkeys (Macaca fascicularis). The settings on record: males. As to the method:
Solvent was used as vehicle for the control group.
The animals used in this analysis were cynomolgus monkeys (Macaca fascicularis), supplied by Centre de Recherches Primatologiques, Port Louis, Mauritius. Two animals were used per group and sex. […] Animals were examined daily for mortality, food consumption and clinical observations. Body weight was recorded once per week.
In vivo examinations. No significant histopathological changes were observed.

Consider “Leu8, Asp10, Lysll, A1a16, G1n18, Thr33, A1a34 human PTH 1-34 [PTS893, Leu8, Asp10, Lysll, A1a16, G1n18, Thr33, A1a34 human PTH 1-34 [hPTH(1-34)]]”, for which the “Food Consumption, Avg., Both animals” value (average of both animals of the group) was 89.6. The “Food Consumption, Avg.” value (average per individual animal) was 87.5 and 91.7. For the same substance, the “Food Consumption, Day 1” value (day 1 of SC dosing, individual animals) came to 100. For the same substance, the “Food Consumption, Day 2” value (day 2 of SC dosing, individual animals) was determined as 100. The “Food Consumption, Day 3” value (day 3 of SC dosing, individual animals) stood at 100. For the setting “day 4 of SC dosing, individual animals”, the “Food Consumption, Day 4” value turned out to be 100. In addition, under “day 5 of SC dosing, individual animals”, the “Food Consumption, Day 5” value is 100. The “Food Consumption, Day 6” value (day 6 of SC dosing, individual animals) was 100. Also, the “Food Consumption, Day 7” value (day 7 of SC dosing, individual animals) is recorded as 100. The “Food Consumption, Day 8” value (day 8 of SC dosing, individual animals) worked out at 100. The “Food Consumption, Day 9” value (day 9 of SC dosing, individual animals) was 100. Moreover, the “Food Consumption, Day 10” value (day 10 of SC dosing, individual animals) worked out at 100. The “Food Consumption, Day 11” value (day 11 of SC dosing, individual animals) is 100. The “Food Consumption, Day 12” value (day 12 of SC dosing, individual animals) amounted to 100. Further, where the note is “day 13 of SC dosing, individual animals”, the “Food Consumption, Day 13” value was 50 and 100. Further, where the note is “day 14 of SC dosing, individual animals”, the “Food Consumption, Day 14” value was 75 and 100. Under “day −1 (before dosing), individual animals”, the “Food Consumption, Day −1” value is recorded as 100. Also, under “day −2 (before dosing), individual animals”, the “Food Consumption, Day −2” value is 75 and 100. Besides, for the setting “day −3 (before dosing), individual animals”, the “Food Consumption, Day −3” value was 100. Further, the “Food Consumption, Day −4” value (day −4 (before dosing), individual animals) is on record as 100. For the same substance, for the setting “day −5 (before dosing), individual animals”, the “Food Consumption, Day −5” value is on record as 100. Under “day −6 (before dosing), individual animals”, the “Food Consumption, Day −6” value is 50.
